Results as given in US20190314312A1, “COMBINATION THERAPY TO INCREASE ENDOGENOUS NITRIC OXIDE (NO) SYNTHESIS” (Yeda Research and Development Co. Ltd., priority 2016, published 2019).

Test system: control mice
Assay: DSS colitis (0.8% DSS) in control mice, fisetin or NaNO2
Assay type: in vivo, mouse
Conditions: control (WT) mice, 0.8% DSS 5 days, fisetin 1 mg IP twice, FIGS. 4L-N
Protocol: Colitis was induced on C57BL/6J.OlaaHsd mice. Mice were treated with 1% DSS for 6 days, followed by administration of either fiselin (1 mg in 30 μl DMSO IP, twice, in 3 days interval) citrulline 1% (wt/vol) solution in drinking water, the combination of both treatments or only DMSO as a control (30 μl DMSO IP, twice, in 3 days interval). […] FIGS. 4L-N—Colitis was induced on enterocytes CKO mice and compared to controls. Mice were treated with 0.8% DSS for 5 days, followed by administration with either NO donors; NaNO2 (100 mg/kg) or fisetin (1 mg in 30 μl DMSO IP, twice, in 3 days interval). […] Note that colitis severity is reduced by activating As1 in enterocytes, by citrulline and fisetin supplementation.
Colitis was induced in Vav1^Cre:As1^f/f mice and CD11c^Cre:As1^f/f with 1.5% DSS and with 0.8% DSS in the Villin^Cre:As1^f/f (wt/vol), (Dextran Sodium Sulfate, MP Biomedicals; molecular weight 36,000-50,000 Da). […]
Colonoscopy was performed on days 7 and 11 of the experiment to monitor for severity of colitis. […] The endoscopic procedure was viewed on a color monitor and digitally recorded on tape. Colitis was scored according to the Murine endoscopic index of colitis severity (MEICS), considering differences in the thickness of the bowel wall, changes in blood vessel integrity, mucosal surface, stool consistency or the presence of fibrin, scored each between 0 and 3. […]

O=c1c(O)c(-c2ccc(O)c(O)c2)oc2cc(O)ccc12 [fisetin, 3,7, 3′, 4′-tetrahydroxyflavone]
effect of treatment on colitis (survival, body weight gain, colitis score): improved colitis severity | effect of treatment on colitis (survival, body weight gain, colitis score) (listed as Fisetin): effective in the control group
